Results on 49 molecules are retold here after ChEMBL document CHEMBL1201862, “PubChem BioAssay data set” (2004).

As a reminder, the EC50 is the concentration needed to bring the measured effect to its halfway point. As a reminder, the AC50 is the midpoint of the concentration-response curve, whichever way the signal moves.

For one series, the system named is Streptococcus. In words: Group A Streptococcus viability loss, dose response, counter-screen for streptokinase expression inhibitor project, luminescence, BacTiterGlo (AID 1915).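 Note: potency for reduction of bacterial viability or growth.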 The format is functional, organism-based.
A further series concerns the target T1, Streptokinase A (Streptococcus pyogenes serotype M1, UniProt P10520).
T1 sequence (P10520 whole entry): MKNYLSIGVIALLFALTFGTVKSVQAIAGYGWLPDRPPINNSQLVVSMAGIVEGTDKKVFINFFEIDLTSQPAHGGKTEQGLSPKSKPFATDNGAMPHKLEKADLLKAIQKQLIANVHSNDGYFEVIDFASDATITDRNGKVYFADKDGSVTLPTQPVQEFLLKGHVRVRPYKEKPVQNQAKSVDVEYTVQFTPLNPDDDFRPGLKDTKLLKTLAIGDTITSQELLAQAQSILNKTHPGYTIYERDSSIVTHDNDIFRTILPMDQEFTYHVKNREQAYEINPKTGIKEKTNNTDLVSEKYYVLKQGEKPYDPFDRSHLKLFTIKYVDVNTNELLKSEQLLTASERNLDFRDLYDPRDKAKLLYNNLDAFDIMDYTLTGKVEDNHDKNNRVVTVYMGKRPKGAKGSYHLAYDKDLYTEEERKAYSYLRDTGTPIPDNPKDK
In words: S. pyogenes streptokinase expression inhibitors, potency, dose response, plasminogen activation absorbance, OD405 (AID 1914).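 Note: secreted streptokinase activity via plasminogen activation per viability signal from cell pellet.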 The format is functional, Streptococcus pyogenes M1 GAS.

Series [1] deals with Streptococcus sp. 'group A'. Description: growth inhibition of control SK(-) GAS strain, dose response, counter-screen for streptokinase expression inhibitor project, luminescence, kanamycin, BacTiterGlo, confirmation (AID 1900). Type of series: functional, organism-based. (In general: The purpose of a counterscreen is to sort out artefacts and off-target activity.)
The nature of series [2]: cytotoxicity toward NIH3T3 fibroblasts, dose response, counter-screen, cell-based, ATP luminescence, mouse fibroblasts (AID 2010).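 Note: cells exposed to compound for about 90 hours before reading.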 Type of series: functional.
The nature of series [3]: inhibitors of intracellular T. cruzi replication, confirmation, NIH3T3 host cells, beta-gal luminescence (AID 2044).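 Note: intracellular parasites grown in NIH/3T3 mouse fibroblasts as host cells; luminescent beta-galactosidase reporter signal from transgenic T. cruzi replicating inside host cells; inhibitors lower the luminescence signal.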 The format is functional, cell-based.
Another series concerns the target Cytochrome P450 3A4 (Homo sapiens, UniProt P08684).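 Note: CYP3A4 tested as one member of a cytochrome P450 panel screen.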
The target of the next series is Cytochrome P450 2C19 (Homo sapiens, UniProt P33261). Description: Cytochrome panel assay with activity outcomes. Panel member name: p450-cyp2c19 Compounds with AC50 equal or less than 10 uM are considered active. Type of series: functional.

Each structure is given as a SMILES string. Where “and” joins values, the source holds several entries; their conditions need not be identical. Equal values may be shown once. Calls of active or inactive are those of the source.

Sequence of Cytochrome P450 2C19 (P33261 whole entry): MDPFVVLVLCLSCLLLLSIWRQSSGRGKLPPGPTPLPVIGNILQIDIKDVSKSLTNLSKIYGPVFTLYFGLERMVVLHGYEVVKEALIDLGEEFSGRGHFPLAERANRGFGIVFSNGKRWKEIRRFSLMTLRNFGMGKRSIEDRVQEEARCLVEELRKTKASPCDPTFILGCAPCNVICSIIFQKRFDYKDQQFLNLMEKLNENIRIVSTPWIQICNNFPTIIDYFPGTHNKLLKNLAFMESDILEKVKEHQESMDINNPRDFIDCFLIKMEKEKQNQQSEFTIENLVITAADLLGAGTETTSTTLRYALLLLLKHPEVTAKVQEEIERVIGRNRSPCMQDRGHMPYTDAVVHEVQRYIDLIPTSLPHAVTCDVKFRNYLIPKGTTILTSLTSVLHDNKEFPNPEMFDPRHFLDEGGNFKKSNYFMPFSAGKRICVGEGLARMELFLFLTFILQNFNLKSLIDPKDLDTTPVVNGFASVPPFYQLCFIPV
Sequence of Cytochrome P450 3A4 (P08684 whole entry): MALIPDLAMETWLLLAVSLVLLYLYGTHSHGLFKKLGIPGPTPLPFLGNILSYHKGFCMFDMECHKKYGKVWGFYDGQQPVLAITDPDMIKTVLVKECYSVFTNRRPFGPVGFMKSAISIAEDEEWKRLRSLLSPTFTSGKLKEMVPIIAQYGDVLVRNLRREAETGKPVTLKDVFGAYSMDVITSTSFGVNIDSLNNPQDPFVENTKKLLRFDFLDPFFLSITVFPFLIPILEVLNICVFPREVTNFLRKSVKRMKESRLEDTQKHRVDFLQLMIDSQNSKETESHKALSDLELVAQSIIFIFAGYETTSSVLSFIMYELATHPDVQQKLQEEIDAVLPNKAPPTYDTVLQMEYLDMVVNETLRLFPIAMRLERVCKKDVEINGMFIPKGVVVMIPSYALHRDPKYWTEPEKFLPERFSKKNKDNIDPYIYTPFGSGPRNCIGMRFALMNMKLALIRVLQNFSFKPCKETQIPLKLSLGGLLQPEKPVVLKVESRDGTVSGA

As for `Brc1ccc(Nc2ncnc3[nH]ncc23)cc1`, the EC50 with Streptococcus was 143 µM (active); on Streptokinase A it was > 150 µM (not active); in series [1] it was 5.77 µM (active).

For `O=C(NC1CCN(Cc2ccccc2)CC1)c1ccc2c(c1)nc(O)n2Cc1ccc(F)cc1`, the EC50 in series [2] is > 60 µM (inconclusive); in series [3] it was 0.485 µM (active).

Regarding `O=S(=O)(Cc1nnnn1-c1ccccc1)c1ccc(F)cc1`, the EC50 (in the series on Streptococcus; on Streptokinase A; in series [1]) was > 150 µM (not active) in each case.

With `COc1cc(-c2nc(-c3ccc4c(c3)-c3ccccc3S4(=O)=O)c(-c3ccccc3)[nH]2)cc(OC)c1OC`, the figures for the EC50 in series [2] and in series [3] were > 60 µM (not active) and 1.81 µM (active), respectively.

With `CCSC1=NC2(CCCCC2)Nc2sc3c(c21)CCCC3`, the results for the EC50 in series [2] and in series [3] were 20.6 µM (active) and 2.23 µM (active), respectively.

In the case of `CC(=O)Nc1ccc(C2C(=O)c3ccccc3C2=O)cc1`, the EC50 is > 150 µM (not active) in the series on Streptococcus, > 150 µM (not active) at Streptokinase A and 31.3 µM (active) in series [1].

In the case of `COc1ccc(C(CCN)c2ccc3c(c2)OCO3)cc1` (stereo not drawn), the EC50 in series [2] is > 60 µM (not active); in series [3], 7.31 µM (active).

As for `O=C(CSc1nnc(NC(=O)c2ccccc2[N+](=O)[O-])s1)NC1CCCC1`, the EC50 (with Streptococcus; on Streptokinase A; in series [1]) was > 150 µM (not active) each time.

For `Cc1ccc(NC(=O)C2CC2C)cc1S(=O)(=O)N1CCOCC1` (stereo not drawn), the EC50 in series [2] is > 30 µM (not active); in series [3] it was 1.91 µM (active).

For `Oc1cc2c(c(Cl)c1O)CCNC[C@H]2c1ccccc1`, the AC50 at Cytochrome P450 3A4 was 39.8 µM (inconclusive) and 12.6 µM (inconclusive).

Turning to `CN(C)Cc1ccccc1-c1cc(NCc2cccs2)ncn1`, the AC50 on Cytochrome P450 3A4 was 10 µM (inconclusive).

As to `COc1ccccc1CCNC(=O)C(=O)c1cn(CC(=O)N2CCCC2)c2ccccc12`, the EC50 (in the series with Streptococcus; at Streptokinase A; in series [1]) was > 150 µM (not active) throughout.

Consider `Cc1cc(C(F)F)n2nc(C(=O)Nc3cccnc3Cl)nc2n1`, for which the AC50 entry at Cytochrome P450 2C19 was “inconclusive”.

Take `Cc1[nH]c2ccccc2c1C(=O)COC(=O)c1ccc2c(=O)n3c(nc2c1)CCC3`: the results for the EC50 (in the series on Streptococcus; in series [1]) were 1.99 µM (active) and 1.74 µM (active), respectively.

As to `COc1ccc(C2CC(c3ccc(Br)cc3)=NN2C(=O)CSC2=NN3CCCC(=O)N=C3S2)cc1` (stereo not drawn), the EC50 in series [2] is > 60 µM (not active); in series [3] it was 4.07 µM (active).

With `COC(=O)[C@@]1(Cc2ccc(OC)cc2)[C@H]2c3cc(C(=O)N4CCCC4)n(Cc4ccc(OC)c(OC)c4)c3C[C@H]2CN1C(=O)c1ccccc1`, the AC50 at Cytochrome P450 2C19 (read-out: AC50) was 15.8 µM (inconclusive).

As for `COc1cc(C(=O)Nc2nc(-c3ccc(C)cc3)cs2)ccc1OCC(=O)N1CCOCC1`, the results for the EC50 in series [2] and in series [3] were > 60 µM (inconclusive) and 2.04 µM (active), respectively.

On to `CC(C)NC(=O)N1CCC2(CC1)CCN(C(=O)c1ccncc1)CC2`, for which the AC50 at Cytochrome P450 3A4 is 25.1 µM (inconclusive).

Take `CN(C)c1ncc2nc(CCc3ccccc3)c(=O)n(CCC#N)c2n1`: on Cytochrome P450 3A4, the AC50 was 20 µM (inconclusive).

Regarding `CCOC(=O)N1CCN(C(=O)c2cc3n(n2)C(C(F)(F)F)CC(c2ccc4c(c2)OCO4)N3)CC1` (stereo not drawn), the EC50 was > 150 µM (not active) in the series with Streptococcus, > 150 µM (not active) at Streptokinase A and 62.1 µM (active) in series [1].

For the molecule `CC(C)C[C@H](NC(=O)c1[nH]cnc1C(=O)Nc1ccccc1)C(=O)OC(C)(C)C`, the values for the EC50 (in the series with Streptococcus; in series [1]) were 7.19 µM (active) and 3.21 µM (active), respectively.

As to `O=[N+]([O-])c1nn(-c2ccccc2)[n+]([O-])c1N1CCN(c2ccccc2F)CC1`, the values for the EC50 in series [2] and in series [3] were > 60 µM (not active) and 0.458 µM (active), respectively.

Take `Cc1ccc(CNC(=O)COC(=O)c2cnccn2)cc1`: the concentration at half-maximal activity (AC50) result was “inconclusive” at Cytochrome P450 2C19 and 17.8 µM (inconclusive) at Cytochrome P450 3A4.

Regarding `CC(C)=CCC/C(C)=C/CO/N=C1/C[C@@H](O)[C@@H](O)[C@@H]2[C@@H]3C(=O)N(Cc4ccccc4)C(=O)[C@H]3CC[C@H]12`, the AC50 on Cytochrome P450 2C19 (read-out: AC50) is 0.0631 µM (inconclusive).

As to `CCc1ccc(CNc2ccc3c(c2)ncn3C(C)(C)C)cc1`, the EC50 with Streptococcus is > 150 µM (not active); at Streptokinase A, > 150 µM (not active); in series [1], 10.7 µM (active).

In the case of `CCOC(=O)c1c(NC(=O)CN2CCCCC2)sc2c1CCN(C(=O)OCC)C2`, the EC50 in series [2] was > 60 µM (not active); in series [3], 1.13 µM (active).

For the molecule `Cc1cccc(NC(=O)NCc2ccc3c(c2)OCO3)c1`, the EC50 (with Streptococcus; at Streptokinase A; in series [1]) was > 150 µM (not active) throughout.

As to `CC(C)Oc1cccc(C(=O)NC(=S)N2CCN(c3ccc(C(F)(F)F)cc3[N+](=O)[O-])CC2)c1`, on Cytochrome P450 3A4, the AC50 is 14.1 µM (inconclusive).

Take `CNc1ncnc2ccc(-c3ccccc3C#N)cc12`: the AC50 at Cytochrome P450 3A4 was 12.6 µM (inconclusive).

As for `O=C(Nc1ccc(N2CCCCC2)c(Cl)c1)c1ccc(N2CCOCC2)c([N+](=O)[O-])c1`, the EC50 in series [2] was > 60 µM (not active); in series [3] it was 1.06 µM (active).

As for `O=c1cnc2cnc(Oc3ccccc3)nc2n1Cc1ccc(F)cc1`, at Cytochrome P450 3A4, the AC50 was 20 µM (inconclusive).

Turning to `COCC1CCCCN1C(=O)c1ccc2oc(CCCc3ccccc3)nc2c1` (stereo not drawn), the EC50 in the series on Streptococcus was > 150 µM (not active); on Streptokinase A it was > 150 µM (not active); in series [1], 98.8 µM (active).

In the case of `COc1ccc(C(=O)c2ccc(N3CCN(C4CC(=O)NC4=O)CC3)cc2)cc1F` (stereo not drawn), the EC50 in the series on Streptococcus is 33.3 µM (active); on Streptokinase A, > 150 µM (not active); in series [1], 2.99 µM (active).

Turning to `S=C(Nc1ccccc1Cl)N(Cc1ccccc1)Cc1cccnc1`, the EC50 in series [2] is > 60 µM (not active); in series [3], 0.992 µM (active).

As to `COc1ccc(CC(=O)NCC2CCCN(Cc3cc(OC)cc(OC)c3)C2)cc1` (stereo not drawn), the EC50 in series [2] is > 30 µM (not active); in series [3] it was 0.197 µM (active).

Regarding `COc1ccc(N(CC(=O)NCCSCc2cccc(Cl)c2)S(C)(=O)=O)cc1Cl`, the EC50 was 79.6 µM (active) in the series on Streptococcus, 23.2 µM (active) on Streptokinase A and 13 µM (active) in series [1].

With `O=C(NC(=S)NNC(=O)c1cccs1)c1ccco1`, the EC50 with Streptococcus was 36.2 µM (active); on Streptokinase A, > 150 µM (not active); in series [1] it was 7.02 µM (active).

For `CCCOc1ccc(-c2nn(-c3ccccc3)cc2/C=C2\SC(N)=NC2=O)cc1C`, the EC50 is > 60 µM (not active) in series [2] and 1.04 µM (active) in series [3].

For the molecule `COc1cc(-c2nc3ccccn3c2NCc2ccccc2)ccc1SC1CCCCC1`, the EC50 in series [2] was > 60 µM (not active); in series [3] it was 0.954 µM (active).

As for `Cc1nc(N2CCN(c3ccccc3O)CC2)c2c(-c3ccccc3)csc2n1`, the EC50 with Streptococcus is > 150 µM (not active); on Streptokinase A, 34.4 µM (active); in series [1], 15.1 µM (active).

`CC(CCc1ccccc1)NC(=O)/C=C/c1ccccc1` (stereo not drawn): the AC50 at Cytochrome P450 3A4 was 25.1 µM (inconclusive).

As to `N#Cc1ccc(CN2CCC3(CC2)CCN(S(=O)(=O)c2ccccc2)CC3)cc1`, the AC50 at Cytochrome P450 3A4 was 20 µM (inconclusive).

In the case of `CC(C)=NO[C@@H](C)CN1CCCCc2nc(C)c(C)cc21`, the AC50 at Cytochrome P450 3A4 is 3.98 µM (inconclusive).

As to `COC(=O)c1ccc(Oc2nc3ccccc3n3c(C)nnc23)cc1`, the figures for the EC50 (in the series on Streptococcus; on Streptokinase A; in series [1]) were 61.2 µM (active), > 150 µM (not active) and 3.82 µM (active), respectively.

In the case of `Cc1ccc(C(=O)NCc2ccc(N3CCN(C(=O)OC(C)(C)C)CC3)cc2)cc1`, the AC50 at Cytochrome P450 2C19 (read-out: AC50) was 14.1 µM (inconclusive).

As to `Cc1cc(C)cc(C(=O)N2CCC(CCC(=O)NC3CC3)CC2)c1`, the EC50 (in the series on Streptococcus; at Streptokinase A; in series [1]) was > 150 µM (not active) throughout.

On to `CO/C(O)=C1\C(C)=NC2=C(C(=O)c3ccccc32)C1c1ccc(-c2ccc(C(=O)O)cc2)o1` (stereo not drawn), for which the figures for the EC50 (with Streptococcus; on Streptokinase A; in series [1]) were 69 µM (active), > 150 µM (not active) and 3.77 µM (active), respectively.

Take `COc1cc(COc2cc(N)c(Cl)cc2C(=O)CCC2CCN(CCNS(C)(=O)=O)CC2)cc(OC)c1`: the AC50 on Cytochrome P450 2C19 (read-out: AC50) is 15.8 µM (inconclusive).

As to `CC(C)=CCC/C(C)=C/CC/C(C)=C/CSc1ccccc1C(=O)O` [SALIRASIB], on Cytochrome P450 3A4, the AC50 is 31.6 µM (inconclusive).
